Laboratory results published in patent US11111238B2, “Coumarin derivatives, processes for their preparation and uses thereof for the treatment of cancer” (Lead Discovery Center GmbH, priority 2017, dated 2021).

Legend:
[1] = tested on: mitochondrial transcription (7S RNA) in HeLa cells; assay: Quantitative real time-PCR assay of inhibition of mitochondrial transcription (cellular qPCR assay IMT); type: cell-based; conditions: Homo sapiens, 4 h compound incubation, qRT-PCR according to Example 5, activity class
Procedure: Quantitative real-time PCR (qRT-PCR), based on the TagMan™ (Thermo Fisher Scientific, Waltham Mass.) technology, was carried out essentially as described in (Heid et al., 1996). HeLa cells were plated one day before compound treatment in RPMI medium supplemented with 10% Fetal Calf Serum and 2 mM L-glutamine. Cells were incubated with dilution series of compounds or vehicle (DMSO) for 4 h, prior to harvest and extraction of the RNA using the RNeasy Mini Kit (Qiagen, Hilden D), according to the manufacturer's instructions. RNA concentrations were measured spectroscopically, using a NanoDrop-2000 (Thermo Fisher Scientific, Waltham Mass.) and normalized prior to cDNA synthesis, using a ‘High-Capacity cDNA Reverse Transcription Kit’ (Thermo Fisher Scientific, Waltham Mass.). qRT-PCR was carried out using the ‘TaqMan Fast Advance Master Mix’ (Thermo Fisher Scientific, Waltham Mass.) on a 7500 Fast Real-Time PCR machine (Applied Biosystems, Foster City Calif.)
For these measurements, three genes were used to compare the effect of the scrutinized compounds in relation to their concentration. The POLRMT-gene was used to detect potential influences on nuclear transcription. Mitochondrial transcription in vivo was monitored by measurements 7S RNA. The TBP (TATA-box binding protein) gene was employed as the control (housekeeping gene) during qRT-PCR. The short-lived mitochondrial 7S RNA, which is not post-transcriptionally stabilized, allowed us to monitor rapid changes in mitochondrial transcription activity following compound addition. Biological triplicates were analyzed using the comparative CT Method (ΔΔCt) method (Bubner and Baldwin, 2004) and reported as Rq % values (Rq=Relative quantification=2-ΔΔCt).

[2] = target: mitochondrial RNA-polymerase (POLRMT) (Mus musculus, UniProt Q8BKF1); assay: Homogeneous TR-FRET assay for mitochondrial transcription activity; type: biochemical; conditions: homogeneous TR-FRET assay according to Example 4; activity class
Sequence of mitochondrial RNA-polymerase (POLRMT) (Q8BKF1 42-1207): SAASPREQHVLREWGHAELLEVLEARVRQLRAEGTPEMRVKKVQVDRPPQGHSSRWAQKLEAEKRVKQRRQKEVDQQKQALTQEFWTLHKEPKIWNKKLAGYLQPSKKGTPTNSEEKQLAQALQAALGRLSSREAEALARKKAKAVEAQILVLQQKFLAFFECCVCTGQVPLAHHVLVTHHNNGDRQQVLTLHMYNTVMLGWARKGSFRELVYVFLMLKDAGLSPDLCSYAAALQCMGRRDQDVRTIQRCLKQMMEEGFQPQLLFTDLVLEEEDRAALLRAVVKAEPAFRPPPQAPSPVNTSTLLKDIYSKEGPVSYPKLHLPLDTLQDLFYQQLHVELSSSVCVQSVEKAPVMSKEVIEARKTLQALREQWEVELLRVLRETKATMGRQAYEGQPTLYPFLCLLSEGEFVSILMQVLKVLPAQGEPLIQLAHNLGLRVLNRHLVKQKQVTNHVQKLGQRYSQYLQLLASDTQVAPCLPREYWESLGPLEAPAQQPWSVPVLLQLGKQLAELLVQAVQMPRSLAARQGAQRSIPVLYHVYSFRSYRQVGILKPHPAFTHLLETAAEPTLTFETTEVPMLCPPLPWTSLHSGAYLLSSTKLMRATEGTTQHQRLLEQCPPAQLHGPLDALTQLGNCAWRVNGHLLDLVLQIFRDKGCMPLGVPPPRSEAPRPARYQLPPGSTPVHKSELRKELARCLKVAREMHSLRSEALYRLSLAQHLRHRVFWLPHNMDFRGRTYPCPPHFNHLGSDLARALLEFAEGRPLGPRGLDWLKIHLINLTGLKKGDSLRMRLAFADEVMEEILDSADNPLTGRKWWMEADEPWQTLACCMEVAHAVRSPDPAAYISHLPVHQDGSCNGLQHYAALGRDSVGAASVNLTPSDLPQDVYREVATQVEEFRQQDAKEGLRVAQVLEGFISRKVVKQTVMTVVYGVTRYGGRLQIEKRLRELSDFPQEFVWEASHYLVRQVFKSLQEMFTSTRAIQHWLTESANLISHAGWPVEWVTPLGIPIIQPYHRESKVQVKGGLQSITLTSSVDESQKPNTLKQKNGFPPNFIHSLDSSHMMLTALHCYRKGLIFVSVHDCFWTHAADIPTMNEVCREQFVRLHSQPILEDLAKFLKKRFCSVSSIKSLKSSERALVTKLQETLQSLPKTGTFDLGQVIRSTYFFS
In short: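 Mouse POLRMT, TFAM and TFB2M with linearized pUC-LSP template in 10 mM Tris-HCl pH 7.5, 10 mM MgCl2, 40 mM NaCl; compounds at 10 μM or serial dilution, 10 min RT preincubation. Started with 500 μM each […], 2 h RT; 407 bp RNA product detected by hybridized Eu-cryptate/ATTO647N probe TR-FRET (ex 340, em 665 nm).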

Compound	IC50 [1] [nM]	IC50 [2] [nM]
COC(=O)CC1CCN(C(=O)C(C)Oc2ccc3c(-c4ccccc4Cl)cc(=O)oc3c2)CC1 (stereo not shown) [Compound 80, methyl 2-[1-[2-[4-(2-chlorophenyl)-2-oxo-chromen-7-yl]oxypropanoyl]-4-piperidyl]acetate]	50 to 500	20 to 100
C[C@@H](Oc1ccc2c(-c3ccc(F)cc3Cl)cc(=O)oc2n1)C(=O)N1CCC[C@H](C(=O)O)C1 [Compound 173, (3S)-1-[(2R)-2-[4-(2-chloro-4-fluoro-phenyl)-2-oxo-pyrano[2,3-b]pyridin-7-yl]oxypropanoyl]piperidine-3-carboxylic acid]	50 to 500	20 to 100
C[C@@H](Oc1ccc2c(-c3ccc(F)cc3Cl)cc(=O)oc2c1)C(=O)Nc1ccc(C(=O)O)cc1 [Compound 141, 4-[[(2R)-2-[4-(2-chloro-4-fluoro-phenyl)-2-oxo-chromen-7-yl]oxypropanoyl]amino]benzoic acid]	50 to 500	< 20
C[C@@H](Oc1ccc2c(-c3ccc(F)cc3Cl)cc(=O)oc2c1)C(=O)N1CCC[C@H](C(=O)OC(C)(C)C)C1 [Compound 118, tert-butyl (3S)-1-[(2R)-2-[4-(2-chloro-4-fluoro-phenyl)-2-oxo-chromen-7-yl]oxypropanoyl] piperidine-3-carboxylate]	50 to 500	20 to 100
C[C@@H](Oc1ccc2c(-c3ccc(F)cc3Cl)cc(=O)oc2c1)C(=O)N1CCC[C@H](NC(=O)CCl)C1 [Compound 167, 2-chloro-N-[(3S)-1-[(2R)-2-[4-(2-chloro-4-fluoro-phenyl)-2-oxo-chromen-7-yl]oxypropanoyl]-3-piperidyl]acetamide]	< 10	< 20
Cc1ccsc1-c1cc(=O)oc2cc(O[C@H](C)C(=O)N3CCC[C@H](CC(=O)O)C3)ccc12 [Compound 181, 2-[(3R)-1-[(2R)-2-[4-(3-methyl-2-thienyl)-2-oxo-chromen-7-yl]oxypropanoyl]-3-piperidyl]acetic acid]	10 to 50	20 to 100
Cc1ccsc1-c1cc(=O)oc2cc(O[C@H](C)C(=O)N3CCC[C@H](C(=O)O)C3)ccc12 [Compound 174, (3S)-1-[(2R)-2-[4-(3-methyl-2-thienyl)-2-oxo-chromen-7-yl]oxypropanoyl]piperidine-3-carboxylic acid]	< 10	20 to 100
CCOC(=O)CC1CCCN(C(=O)C(C)Oc2ccc3c(-c4ccccc4Cl)cc(=O)oc3c2)C1 (stereo not shown) [Compound 86, ethyl 2-[1-[2-[4-(2-chlorophenyl)-2-oxo-chromen-7-yl]oxypropanoyl]-3-piperidyl]acetate]	10 to 50	20 to 100
Cc1ccccc1-c1cc(=O)oc2cc(OC(C)C(=O)N3CCCC(S(N)(=O)=O)C3)ccc12 (stereo not shown) [Compound 12, 1-[2-[4-(o-tolyl)-2-oxo-chromen-7-yl]oxypropanoyl]piperidine-3-sulfonamide]	< 10	< 20
COC(=O)C[C@H]1CCCN(C(=O)[C@@H](C)Oc2ccc3c(-c4ccc(F)cc4Cl)cc(=O)oc3c2)C1 [Compound 104, methyl 2-[(3R)-1-[(2R)-2-[4-(2-chloro-4-fluoro-phenyl)-2-oxo-chromen-7-yl]oxypropanoyl]-3-piperidyl]acetate]	10 to 50	< 20
Cc1ccsc1-c1cc(=O)oc2cc(O[C@H](C)C(=O)NC(C)C)ccc12 [Compound 178, (2R)-N-isopropyl-2-[4-(3-methyl-2-thienyl)-2-oxo-chromen-7-yl]oxy-propanamide]	10 to 50	100 to 1000
Cc1ccccc1-c1cc(=O)oc2cc(OC(C)(C)C(=O)NC(C)C)ccc12 [Compound 115, N-isopropyl-2-methyl-2-[4-(o-tolyl)-2-oxo-chromen-7-yl]oxy-propanamide]	10 to 50	100 to 1000
CC(C)OC(=O)C[C@H]1CCCN(C(=O)[C@@H](C)Oc2ccc3c(-c4ccc(F)cc4Cl)cc(=O)oc3c2)C1 [Compound 123, isopropyl 2-[(3R)-1-[(2R)-2-[4-(2-chloro-4-fluoro-phenyl)-2-oxo-chromen-7-yl]oxypropanoyl]-3-piperidyl]acetate]	< 10	20 to 100

The remaining lines, values ahead:

IC50 [1] [nM]	IC50 [2] [nM]	Compound
< 10	< 20	C[C@@H](Oc1ccc2c(-c3ccc(F)cc3Cl)cc(=O)oc2c1)C(=O)N1CCC[C@H](CC(=O)O)C1 [Compound 106, 2-[(3R)-1-[(2R)-2-[4-(2-chloro-4-fluoro-phenyl)-2-oxo-chromen-7-yl]oxypropanoyl]-3-piperidyl]acetic acid]
< 10	20 to 100	CC(Oc1ccc2c(-c3ccccc3Cl)cc(=O)oc2c1)C(=O)N1CCCC(CC(=O)O)C1 (stereo not shown) [Compound 66, 2-[1-[2-[4-(2-chlorophenyl)-2-oxo-chromen-7-yl]oxypropanoyl]-3-piperidyl]acetic acid]
< 10	< 20	C[C@@H](Oc1ccc2c(-c3ccc(F)cc3Cl)cc(=O)oc2c1)C(=O)Nc1ccc(C(=O)O)cn1 [Compound 155, 6-[[(2R)-2-[4-(2-chloro-4-fluoro-phenyl)-2-oxo-chromen-7-yl]oxypropanoyl]amino]pyridine-3-carboxylic acid]
< 10	20 to 100	Cc1ccccc1-c1cc(=O)oc2cc(OC(C)C(=O)N3CCC[C@@H](C(=O)N(C)C)C3)ccc12 (stereo partly drawn) [Compound 78, (3R)-N,N-dimethyl-1-[2-[4-(o-tolyl)-2-oxo-chromen-7-yl]oxypropanoyl]piperidine-3-carboxamide]
< 10	< 20	CNC(=O)C[C@H]1CCCN(C(=O)[C@@H](C)Oc2ccc3c(-c4ccc(F)cc4Cl)cc(=O)oc3c2)C1 [Compound 128, 2-[(3R)-1-[(2R)-2-[4-(2-chloro-4-fluoro-phenyl)-2-oxo-chromen-7-yl]oxypropanoyl]-3-piperidyl]-N-methyl-acetamide]
< 10	< 20	CC(Oc1ccc2c(-c3ccccc3Cl)cc(=O)oc2c1)C(=O)N1CCCC(S(N)(=O)=O)C1 (stereo not shown) [Compound 24, 1-[2-[4-(2-chlorophenyl)-2-oxo-chromen-7-yl]oxypropanoyl]piperidine-3-sulfonamide]
< 10	20 to 100	CC(C)NC(=O)C(C)Oc1ccc2c(-c3ccccc3Cl)cc(=O)oc2c1 (stereo not shown) [Compound 70, 2-[4-(2-chlorophenyl)-2-oxo-chromen-7-yl]oxy-N-isopropyl-propanamide]
< 10	20 to 100	CC(Oc1ccc2c(-c3ccccc3Cl)cc(=O)oc2c1)C(=O)N1CCCC(S(C)(=N)=O)C1 (stereo not shown) [Compound 79, 4-(2-chlorophenyl)-7-[1-methyl-2-[3-(methylsulfonimidoyl)-1-piperidyl]-2-oxo-ethoxy]chromen-2-one]
< 10	< 20	CNC(=O)C1CCCN(C(=O)C(C)Oc2ccc3c(-c4ccccc4Cl)cc(=O)oc3c2)C1 (stereo not shown) [Compound 15, 1-[2-[4-(2-chlorophenyl)-2-oxo-chromen-7-yl]oxypropanoyl]-N-methyl-piperidine-3-carboxamide]
< 10	< 20	CC(Oc1ccc2c(-c3ccccc3Cl)cc(=O)oc2c1)C(=O)NC1CC1 (stereo not shown) [Compound 26, 2-[4-(2-chlorophenyl)-2-oxo-chromen-7-yl]oxy-N-cyclopropyl-propanamide]
